Laboratory results: PubChem BioAssay (NCI)
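48-hour exposure; five concentrations; linearly interpolated endpoints. The concentration for 50% growth inhibition is given as GI50. TGI denotes the concentration required for complete inhibition of growth.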

Tested on: MDA-MB-468 breast
Experiment: inhibition of tumour cell growth, NCI panel, 48 h

Compound | GI50 [µM] | TGI [µM]
CN(C)c1ccc(N)cc1 | 2.81 | 8.7
CCOC(=O)c1cc(/C(=N\O)c2cc(OC)c(OC)c(OC)c2)n2cc(C)cc(C)c12 | 1.46 | 4.79
COc1ccc(C(=O)c2cc(C)c(OC)c(C)c2)c(OC)c1N(C(=O)C(Cl)Cl)C(=O)C(Cl)Cl | 0.0259 | 0.0926
NC(=S)N/N=C/c1ccc(OC(=O)COc2ccc(Cl)cc2)cn1 | 2.54 | 9.59
O=C(CCl)Nc1ccc(Cl)cc1 | 2.34 | 6.28
CCOC(=O)Sc1ncnc2nc[nH]c12 | 0.35 | > 100
Cc1ccc(C(=NN=C(N)N)c2ccc(C)cc2)cc1 | 0.232 | 0.75
COc1cc(OC)c(/C=C/C(=O)c2c(OC)cccc2OC)c(OC)c1 | 0.394 | 3.16
COc1ccc(C(=O)COc2cccc(/C=C3\COc4ccc5ccccc5c4C3=O)c2)cc1 | 2.36 | 12.3
CCCCN=C(N)c1ccc(OCCSCCOc2ccc(C(N)=NCCCC)cc2)cc1 | 0.36 | 3.87
CC1CN1CC(O)C(O)CN1CC1C (stereo not drawn) | 0.278 | 1.68
O=C(c1cccc(O)c1O)c1cn(Cc2ccc(F)cc2)c2cccc(O)c12 | 5.46 | 21.7
CC/C=C\C[C@@H]1C/C=C2/C(=O)C=C[C@H]2C/C=C\CCCC(=O)O1 | 0.976 | 2.58
CCN1C(=O)CNc2ncc(-c3ccc(-c4ncn[nH]4)nc3C)nc21 | 0.196 | 1.17
